In EP1247803A2, “Indolinone compounds suitable for modulation of protein kinases” (Sugen, Inc., priority 1996, dated 1998):

Columns and labels:
EGFR = biological target: T1, EGFR (Homo sapiens, UniProt P00533); assay: EGFR ELISA assay (in vitro kinase activity, EGFR captured from A431 cell lysate); assay type: biochemical; set-up: concentration or dose not given beside the values
T1 construct: Add 7 ug A431 cell lysate per well (EGFR source); endogenous in cells; host or cells: A431
How it was run: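 Receptor autophosphorylation was read by ELISA: anti-phosphotyrosine serum and an HRP-linked secondary with ABTS substrate, absorbance at 410 nm (reference 630 nm). The reaction ran 5 min with 3 µM ATP and 5 mM MnCl2 and was quenched by 20 mM EDTA. Compounds were first incubated 30 min with antibody-captured EGFR from A431 cell lysate.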

PDGF-R = PDGF-R (Homo sapiens, UniProt P09619); assay: PDGF-R ELISA; assay type: cell-based
Source text: A PDGF-R ELISA is described in International Patent Publication No. WO 96/40116, published December 19, 1996 by Tang et al.

T1 sequence (P00533 25-1210): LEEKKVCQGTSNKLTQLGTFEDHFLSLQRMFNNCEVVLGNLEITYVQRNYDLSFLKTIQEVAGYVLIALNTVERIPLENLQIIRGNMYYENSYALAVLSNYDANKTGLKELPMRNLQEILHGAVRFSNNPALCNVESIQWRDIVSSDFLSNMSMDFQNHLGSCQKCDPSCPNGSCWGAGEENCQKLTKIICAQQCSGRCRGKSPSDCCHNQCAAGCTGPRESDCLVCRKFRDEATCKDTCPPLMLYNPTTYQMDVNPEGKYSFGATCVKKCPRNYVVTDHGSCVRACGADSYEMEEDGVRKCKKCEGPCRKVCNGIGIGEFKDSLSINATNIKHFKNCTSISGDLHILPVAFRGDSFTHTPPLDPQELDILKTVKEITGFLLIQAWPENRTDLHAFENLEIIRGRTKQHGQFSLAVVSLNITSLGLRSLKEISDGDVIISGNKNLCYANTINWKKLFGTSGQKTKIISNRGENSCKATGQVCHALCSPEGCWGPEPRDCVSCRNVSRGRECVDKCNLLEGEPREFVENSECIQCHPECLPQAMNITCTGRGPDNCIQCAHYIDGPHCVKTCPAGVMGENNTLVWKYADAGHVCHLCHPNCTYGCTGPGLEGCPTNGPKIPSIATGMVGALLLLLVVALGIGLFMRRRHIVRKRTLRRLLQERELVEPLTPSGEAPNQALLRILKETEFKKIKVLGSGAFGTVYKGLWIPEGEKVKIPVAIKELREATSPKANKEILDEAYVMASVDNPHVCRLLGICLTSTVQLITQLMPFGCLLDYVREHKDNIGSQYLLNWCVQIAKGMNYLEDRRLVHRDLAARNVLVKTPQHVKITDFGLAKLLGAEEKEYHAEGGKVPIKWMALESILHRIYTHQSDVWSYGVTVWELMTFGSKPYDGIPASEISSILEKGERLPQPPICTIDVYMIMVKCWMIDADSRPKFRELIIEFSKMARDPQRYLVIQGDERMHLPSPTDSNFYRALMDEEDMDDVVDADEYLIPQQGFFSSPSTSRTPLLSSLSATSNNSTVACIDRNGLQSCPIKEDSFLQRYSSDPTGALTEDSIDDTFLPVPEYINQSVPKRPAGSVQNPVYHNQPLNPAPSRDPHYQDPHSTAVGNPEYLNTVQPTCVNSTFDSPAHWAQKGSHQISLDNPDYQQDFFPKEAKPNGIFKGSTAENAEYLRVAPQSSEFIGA
PDGF-R, sequence (P09619 33-1106, species assumed): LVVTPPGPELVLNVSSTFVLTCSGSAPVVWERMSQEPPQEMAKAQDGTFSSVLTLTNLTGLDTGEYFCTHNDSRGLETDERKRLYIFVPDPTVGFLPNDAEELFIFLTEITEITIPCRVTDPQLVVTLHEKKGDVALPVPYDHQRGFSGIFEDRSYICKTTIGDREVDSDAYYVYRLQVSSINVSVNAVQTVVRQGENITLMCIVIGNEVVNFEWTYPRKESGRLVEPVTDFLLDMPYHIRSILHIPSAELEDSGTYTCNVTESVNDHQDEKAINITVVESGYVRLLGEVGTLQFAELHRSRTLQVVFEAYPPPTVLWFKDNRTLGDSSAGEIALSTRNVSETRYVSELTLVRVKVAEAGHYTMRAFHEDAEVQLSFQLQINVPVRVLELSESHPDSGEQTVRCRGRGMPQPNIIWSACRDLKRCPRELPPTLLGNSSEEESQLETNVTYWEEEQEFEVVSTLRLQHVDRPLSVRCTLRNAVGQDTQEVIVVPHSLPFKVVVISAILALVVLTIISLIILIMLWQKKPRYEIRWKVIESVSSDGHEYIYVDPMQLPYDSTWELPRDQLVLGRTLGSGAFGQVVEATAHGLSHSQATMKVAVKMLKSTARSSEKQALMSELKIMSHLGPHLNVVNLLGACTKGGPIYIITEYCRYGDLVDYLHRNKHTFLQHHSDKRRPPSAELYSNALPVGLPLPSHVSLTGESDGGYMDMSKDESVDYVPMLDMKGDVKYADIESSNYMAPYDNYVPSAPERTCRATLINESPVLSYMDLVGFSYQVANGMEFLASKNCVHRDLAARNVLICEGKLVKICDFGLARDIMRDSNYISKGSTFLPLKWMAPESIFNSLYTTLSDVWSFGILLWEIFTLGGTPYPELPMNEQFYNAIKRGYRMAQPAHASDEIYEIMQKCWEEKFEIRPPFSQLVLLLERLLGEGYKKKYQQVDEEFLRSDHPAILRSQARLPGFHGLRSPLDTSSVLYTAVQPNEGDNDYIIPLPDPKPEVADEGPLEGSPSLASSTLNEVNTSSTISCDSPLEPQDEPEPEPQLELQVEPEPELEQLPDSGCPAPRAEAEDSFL

CNS(=O)(=O)c1ccc2c(c1)C(=Cc1cc(OC)cc(OC)c1)C(=O)N2 [10728/D04]
Biochem EGFR %Inhibition (EGFR): -1.1%
PDGF Kinase %Inhibition (PDGF-R): 26.7%

CNS(=O)(=O)c1ccc2c(c1)C(=Cc1cc(OC)ccc1OC)C(=O)N2 [10728/D02]
Biochem EGFR %Inhibition (EGFR): 9.9%
PDGF Kinase %Inhibition (PDGF-R): 9.8%

O=C1Nc2ccc(S(=O)(=O)N3CCOCC3)cc2C1=Cc1cc(O)ccc1O [10727/F10]
Biochem EGFR %Inhibition (EGFR): 74.1%
PDGF Kinase %Inhibition (PDGF-R): 9.4%

O=C1Nc2ccc(S(=O)(=O)N3CCOCC3)cc2C1=Cc1cc2c(cc1Cl)OCO2 [10727/F06]
Biochem EGFR %Inhibition (EGFR): 4.9%
PDGF Kinase %Inhibition (PDGF-R): 8.6%

COc1cc(N(C)C)ccc1C=C1C(=O)Nc2ccc(I)cc21 [10728/B05]
Biochem EGFR %Inhibition (EGFR): 26.9%
PDGF Kinase %Inhibition (PDGF-R): 9.4%

COc1cc(C=C2C(=O)Nc3ccc(Br)c(C)c32)cc2c1OCO2 [10728/C11]
Biochem EGFR %Inhibition (EGFR): 21.8%
PDGF Kinase %Inhibition (PDGF-R): 8.5%

O=C1Nc2ccc(S(=O)(=O)N3CCOCC3)cc2C1=Cc1ccccc1Sc1ccc(Cl)cc1 [10727/F05]
Biochem EGFR %Inhibition (EGFR): -9.1%
PDGF Kinase %Inhibition (PDGF-R): -3.7%

O=C1Nc2ccc(CCCl)cc2C1=Cc1cc2c(cc1Cl)OCO2 [10727/G06]
Biochem EGFR %Inhibition (EGFR): -12.1%
PDGF Kinase %Inhibition (PDGF-R): -12.5%

COc1cccc(C=C2C(=O)Nc3ccc(CCCl)cc32)c1OC [10727/G11]
Biochem EGFR %Inhibition (EGFR): -3.5%
PDGF Kinase %Inhibition (PDGF-R): 15.9%

O=C1Nc2ccc(S(=O)(=O)Nc3ccc(C(F)(F)F)cc3)cc2C1=Cc1ccccc1Sc1ccc(Cl)cc1 [10727/E05]
Biochem EGFR %Inhibition (EGFR): 12.9%
PDGF Kinase %Inhibition (PDGF-R): -7.4%

CCc1cc(CC)c(C=C2C(=O)Nc3ccc(S(=O)(=O)N4CCOCC4)cc32)[nH]1 [10727/F03]
Biochem EGFR %Inhibition (EGFR): 36.8%
PDGF Kinase %Inhibition (PDGF-R): -3.7%

CNS(=O)(=O)c1ccc2c(c1)C(=Cc1cc(Cl)cc(Br)c1O)C(=O)N2 [10727/D04]
Biochem EGFR %Inhibition (EGFR): 39.6%
PDGF Kinase %Inhibition (PDGF-R): 6.4%

CNS(=O)(=O)c1ccc2c(c1)C(=Cc1cccc(C#N)c1)C(=O)N2 [10727/D08]
Biochem EGFR %Inhibition (EGFR): -0.5%
PDGF Kinase %Inhibition (PDGF-R): 5.0 ! %

O=C1Nc2ccc(CCCl)cc2C1=Cc1coc2ccccc2c1=O [10727/G07]
Biochem EGFR %Inhibition (EGFR): 5.4%
PDGF Kinase %Inhibition (PDGF-R): -24.1%

COc1cc(C=C2C(=O)Nc3ccc(I)cc32)cc2c1OCO2 [10728/B11]
Biochem EGFR %Inhibition (EGFR): 48.2%
PDGF Kinase %Inhibition (PDGF-R): -12.4%

Cc1c(Br)ccc2c1C(=Cc1c(F)cccc1C(F)(F)F)C(=O)N2 [10728/C09]
Biochem EGFR %Inhibition (EGFR): -6.8%
PDGF Kinase %Inhibition (PDGF-R): 8.1%

N#Cc1ccc(C=C2C(=O)Nc3ccc(S(=O)(=O)N4CCOCC4)cc32)cc1 [10727/F09]
Biochem EGFR %Inhibition (EGFR): -2.0%
PDGF Kinase %Inhibition (PDGF-R): 21.7%

COc1cc(C=C2C(=O)Nc3c(Br)cc(Br)cc32)cc(OC)c1 [10728/A04]
Biochem EGFR %Inhibition (EGFR): 28.0%
PDGF Kinase %Inhibition (PDGF-R): 15.6%

Cc1c(Br)ccc2c1C(=Cc1ccccc1OCC(=O)O)C(=O)N2 [10728/C10]
Biochem EGFR %Inhibition (EGFR): 4.4%
PDGF Kinase %Inhibition (PDGF-R): 11.2%
